Common to all, as to assay: relative viability (nuclei count vs DMSO), 5 days (fraction); higher = more cells survive
Compound in the experiment “FG-4592 + Lapatinib”: Cc1nc(C(=O)NCC(=O)O)c(O)c2ccc(Oc3ccccc3)cc12 [FG-4592] + CS(=O)(=O)CCNCc1ccc(-c2ccc3ncnc(Nc4ccc(OCc5cccc(F)c5)c(Cl)c4)c3c2)o1 [Lapatinib] (partner 2 µM)
The method, boiled down:
(§1)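 Lung cancer cell lines, seeded in 1536-well plates, were treated the following day by pin tool with a single drug or with five library-drug doses (not always all listed) in √10 steps on top of a fixed anchor-drug dose. Cells were fixed and nuclei stained in one step after 5 days, and nuclei were counted. Relative viability is the nuclei count for treated wells divided by that for vehicle wells, reported as medians of duplicate plates.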

Compound in the experiment “FG-4592 + AZD7762”: Cc1nc(C(=O)NCC(=O)O)c(O)c2ccc(Oc3ccccc3)cc12 [FG-4592] + NC(=O)Nc1cc(-c2cccc(F)c2)sc1C(=O)N[C@H]1CCCNC1 [AZD7762] (partner 0.2 µM)
The procedure, abridged: as §1

Compound in the experiment “FG-4592 + Luminespib”: Cc1nc(C(=O)NCC(=O)O)c(O)c2ccc(Oc3ccccc3)cc12 [FG-4592] + CCNC(=O)c1noc(-c2cc(C(C)C)c(O)cc2O)c1-c1ccc(CN2CCOCC2)cc1 [Luminespib] (partner 0.01 µM)
The procedure, abridged:
as §1

Compound in the experiment “IU1-47 + OSI-027”: CC1=CC(=C(N1C2=CC=C(C=C2)Cl)C)C(=O)CN3CCCCC3 [IU1-47] + COc1cccc2cc(-c3nc([C@H]4CC[C@H](C(=O)O)CC4)n4ncnc(N)c34)[nH]c12 [OSI-027] (partner 0.5 µM)
The method, boiled down: as §1

Regarding Calu-6, the relative viability is 1.01 with FG-4592 + Lapatinib (first compound 0.08 µM); 1 with FG-4592 + Lapatinib (first compound 0.253 µM); 1.12 with FG-4592 + Lapatinib (first compound 0.8 µM); 1.08 with FG-4592 + Lapatinib (first compound 2.53 µM); 1.07 with FG-4592 + Lapatinib (first compound 8 µM).
As for ChaGo-K-1, the relative viability in the experiment with FG-4592 + AZD7762 (first compound 0.08 µM) was 0.846; in the experiment with FG-4592 + AZD7762 (first compound 0.253 µM), 0.888; in the experiment with FG-4592 + AZD7762 (first compound 0.8 µM), 0.856; in the experiment with FG-4592 + AZD7762 (first compound 2.53 µM), 0.93; in the experiment with FG-4592 + AZD7762 (first compound 8 µM), 0.66; with FG-4592 + Luminespib (first compound 0.08 µM), 0.522. Further, the relative viability came out at 0.548 with FG-4592 + Luminespib (first compound 0.253 µM); 0.594 with FG-4592 + Luminespib (first compound 0.8 µM); 0.702 in the experiment with FG-4592 + Luminespib (first compound 2.53 µM); 0.459 in the experiment with FG-4592 + Luminespib (first compound 8 µM); 0.485 in the experiment with IU1-47 + OSI-027 (first compound 0.08 µM); 0.535 in the experiment with IU1-47 + OSI-027 (first compound 0.253 µM). For the same cell line, the results for the relative viability with IU1-47 + OSI-027 (first compound 0.8 µM), in the experiment with IU1-47 + OSI-027 (first compound 2.53 µM) and with IU1-47 + OSI-027 (first compound 8 µM) were 0.589, 0.41 and 0.489, respectively.
Turning to EBC-1, the relative viability with FG-4592 + Lapatinib (first compound 0.08 µM) worked out at 0.24; with FG-4592 + Lapatinib (first compound 0.253 µM), 0.25; with FG-4592 + Lapatinib (first compound 0.8 µM), 0.206; with FG-4592 + Lapatinib (first compound 2.53 µM) it was 0.201; in the experiment with FG-4592 + Lapatinib (first compound 8 µM), 0.232.
EKVX: the relative viability was 0.732 with FG-4592 + AZD7762 (first compound 0.08 µM); 0.628 with FG-4592 + AZD7762 (first compound 0.253 µM); 0.758 with FG-4592 + AZD7762 (first compound 0.8 µM); 0.665 in the experiment with FG-4592 + AZD7762 (first compound 2.53 µM); 0.747 with FG-4592 + AZD7762 (first compound 8 µM); 0.226 with FG-4592 + Lapatinib (first compound 0.08 µM). Besides, the relative viability with FG-4592 + Lapatinib (first compound 0.253 µM) was determined as 0.213; in the experiment with FG-4592 + Lapatinib (first compound 0.8 µM), 0.195; with FG-4592 + Lapatinib (first compound 2.53 µM), 0.278; with FG-4592 + Lapatinib (first compound 8 µM), 0.375; with FG-4592 + Luminespib (first compound 0.08 µM) it was 0.842; in the experiment with FG-4592 + Luminespib (first compound 0.253 µM) it was 0.807. The relative viability with FG-4592 + Luminespib (first compound 0.8 µM) came out at 0.81; with FG-4592 + Luminespib (first compound 2.53 µM), 0.891; in the experiment with FG-4592 + Luminespib (first compound 8 µM) it was 0.9; with IU1-47 + OSI-027 (first compound 0.08 µM) it was 0.858; in the experiment with IU1-47 + OSI-027 (first compound 0.253 µM), 0.862; with IU1-47 + OSI-027 (first compound 0.8 µM), 0.726. Also, the results for the relative viability with IU1-47 + OSI-027 (first compound 2.53 µM) and in the experiment with IU1-47 + OSI-027 (first compound 8 µM) were 0.658 and 0.828, respectively.
As for EMC-BAC-2, the relative viability was determined as 1.17 with FG-4592 + AZD7762 (first compound 0.08 µM); 0.903 in the experiment with FG-4592 + AZD7762 (first compound 0.253 µM); 0.901 in the experiment with FG-4592 + AZD7762 (first compound 0.8 µM); 1.08 with FG-4592 + AZD7762 (first compound 2.53 µM); 1 in the experiment with FG-4592 + AZD7762 (first compound 8 µM); 0.853 in the experiment with FG-4592 + Lapatinib (first compound 0.08 µM). The relative viability in the experiment with FG-4592 + Lapatinib (first compound 0.253 µM) worked out at 0.866; with FG-4592 + Lapatinib (first compound 0.8 µM), 0.808; with FG-4592 + Lapatinib (first compound 2.53 µM), 0.731; in the experiment with FG-4592 + Lapatinib (first compound 8 µM), 0.842; in the experiment with FG-4592 + Luminespib (first compound 0.08 µM), 1.2; with FG-4592 + Luminespib (first compound 0.253 µM) it was 1.11. Further, the relative viability was 1.1 in the experiment with FG-4592 + Luminespib (first compound 0.8 µM); 1.17 with FG-4592 + Luminespib (first compound 2.53 µM); 1.11 with FG-4592 + Luminespib (first compound 8 µM); 0.392 in the experiment with IU1-47 + OSI-027 (first compound 0.08 µM); 0.368 with IU1-47 + OSI-027 (first compound 0.253 µM); 0.374 with IU1-47 + OSI-027 (first compound 0.8 µM). Besides, the relative viability in the experiment with IU1-47 + OSI-027 (first compound 2.53 µM) is 0.38; with IU1-47 + OSI-027 (first compound 8 µM), 0.362.
Take EPLC-272H: the relative viability with FG-4592 + AZD7762 (first compound 0.08 µM) was 0.194; with FG-4592 + AZD7762 (first compound 0.253 µM) it was 0.426; in the experiment with FG-4592 + AZD7762 (first compound 0.8 µM), 0.224; in the experiment with FG-4592 + AZD7762 (first compound 2.53 µM), 0.181; in the experiment with FG-4592 + AZD7762 (first compound 8 µM), 0.15; in the experiment with FG-4592 + Lapatinib (first compound 0.08 µM) it was 1.12. Also, the relative viability turned out to be 0.795 with FG-4592 + Lapatinib (first compound 0.253 µM); 0.586 with FG-4592 + Lapatinib (first compound 0.8 µM); 0.962 with FG-4592 + Lapatinib (first compound 2.53 µM); 0.916 in the experiment with FG-4592 + Lapatinib (first compound 8 µM); 0.455 in the experiment with FG-4592 + Luminespib (first compound 0.08 µM); 0.241 with FG-4592 + Luminespib (first compound 0.253 µM). The relative viability is 0.212 with FG-4592 + Luminespib (first compound 0.8 µM); 0.295 in the experiment with FG-4592 + Luminespib (first compound 2.53 µM); 0.228 in the experiment with FG-4592 + Luminespib (first compound 8 µM); 0.326 in the experiment with IU1-47 + OSI-027 (first compound 0.08 µM); 0.325 in the experiment with IU1-47 + OSI-027 (first compound 0.253 µM); 0.253 in the experiment with IU1-47 + OSI-027 (first compound 0.8 µM). The relative viability with IU1-47 + OSI-027 (first compound 8 µM) amounted to 0.259.
With H3255, the relative viability is 0.902 with FG-4592 + AZD7762 (first compound 0.08 µM); 0.802 in the experiment with FG-4592 + AZD7762 (first compound 0.253 µM); 0.995 with FG-4592 + AZD7762 (first compound 0.8 µM); 0.754 in the experiment with FG-4592 + AZD7762 (first compound 2.53 µM); 0.831 with FG-4592 + AZD7762 (first compound 8 µM); 0.275 in the experiment with FG-4592 + Lapatinib (first compound 0.08 µM). The relative viability with FG-4592 + Lapatinib (first compound 0.253 µM) was found to be 0.235; in the experiment with FG-4592 + Lapatinib (first compound 0.8 µM) it was 0.271; in the experiment with FG-4592 + Lapatinib (first compound 2.53 µM) it was 0.257; in the experiment with FG-4592 + Lapatinib (first compound 8 µM), 0.26; in the experiment with FG-4592 + Luminespib (first compound 0.08 µM), 0.891; with FG-4592 + Luminespib (first compound 0.253 µM), 0.804. Further, the relative viability with FG-4592 + Luminespib (first compound 0.8 µM) turned out to be 0.848; in the experiment with FG-4592 + Luminespib (first compound 2.53 µM) it was 0.945; with FG-4592 + Luminespib (first compound 8 µM), 0.875; with IU1-47 + OSI-027 (first compound 0.08 µM), 0.654; in the experiment with IU1-47 + OSI-027 (first compound 0.253 µM), 0.675; in the experiment with IU1-47 + OSI-027 (first compound 0.8 µM), 0.624. Further, the relative viability with IU1-47 + OSI-027 (first compound 2.53 µM) is 0.465; with IU1-47 + OSI-027 (first compound 8 µM) it was 0.561.
As to HCC-78, the relative viability with FG-4592 + AZD7762 (first compound 0.08 µM) is 0.558; with FG-4592 + AZD7762 (first compound 0.8 µM) it was 0.534; in the experiment with FG-4592 + AZD7762 (first compound 2.53 µM), 0.625; with FG-4592 + AZD7762 (first compound 8 µM), 0.662; with FG-4592 + Lapatinib (first compound 0.08 µM) it was 0.696; with FG-4592 + Lapatinib (first compound 0.253 µM) it was 0.733. The relative viability came to 0.701 with FG-4592 + Lapatinib (first compound 0.8 µM); 0.892 with FG-4592 + Lapatinib (first compound 2.53 µM); 0.9 with FG-4592 + Lapatinib (first compound 8 µM); 0.38 with IU1-47 + OSI-027 (first compound 0.08 µM); 0.354 in the experiment with IU1-47 + OSI-027 (first compound 0.253 µM); 0.337 in the experiment with IU1-47 + OSI-027 (first compound 0.8 µM). For the same cell line, the values for the relative viability in the experiment with IU1-47 + OSI-027 (first compound 2.53 µM) and in the experiment with IU1-47 + OSI-027 (first compound 8 µM) were 0.42 and 0.353, respectively.
Turning to HCC-366, the relative viability with FG-4592 + AZD7762 (first compound 0.08 µM) was 0.243; with FG-4592 + AZD7762 (first compound 0.253 µM), 0.248; in the experiment with FG-4592 + AZD7762 (first compound 0.8 µM), 0.28; with FG-4592 + AZD7762 (first compound 2.53 µM), 0.364; in the experiment with FG-4592 + AZD7762 (first compound 8 µM), 0.269; with FG-4592 + Lapatinib (first compound 0.08 µM), 0.89. Moreover, the relative viability is 0.998 with FG-4592 + Lapatinib (first compound 0.253 µM); 1.1 with FG-4592 + Lapatinib (first compound 0.8 µM); 1.1 in the experiment with FG-4592 + Lapatinib (first compound 2.53 µM); 1.13 with FG-4592 + Lapatinib (first compound 8 µM); 1.07 with IU1-47 + OSI-027 (first compound 0.08 µM); 0.934 with IU1-47 + OSI-027 (first compound 0.253 µM). Besides, the results for the relative viability with IU1-47 + OSI-027 (first compound 0.8 µM), with IU1-47 + OSI-027 (first compound 2.53 µM) and with IU1-47 + OSI-027 (first compound 8 µM) were 1.17, 0.692 and 1.27, respectively.

The values are drawn from the supplement of paper PMC10307832.
